{"source": "paper PMC6429214", "about": "“Design, Synthesis and Biological Evaluation of Isoxazole-Based CK1 Inhibitors Modified with Chiral Pyrrolidine Scaffolds” (Molecules, 2019)", "assay_in_all_cases": "33PanQinase panel", "assay_type_in_all_cases": "biochemical", "key": {"[1]": {"target": "T1, ROCK2 (Homo sapiens, UniProt O75116)", "T1 construct": "purchased ProQinase", "conditions": "ROCK2, 1 µM; read-out: Residual Activity (%)", "experimental": "(§1) Figure 5 Dendrogram representation of the selectivity profile of 29d at a concentration of 1 μM in a panel of 320 wild-type kinases (ProQinase, Freiburg, Germany). The residual kinase activity was determined compared to DMSO control. Images were generated using TREEspot Software Tool, DISCOVERX CORPORATION 2010.\n(§2) Figure S1. X-ray crystal structure of intermediate compound 25d (ORTEP drawing with ellipsoids at 30% probability). CCDC 1589043 contains the supplementary crystallographic data for this paper. The data can be obtained free of charge from The Cambridge Crystallographic Data Centre via www.ccdc.cam.ac.uk/structures.\n(§3) Table S1 Data collection, structure refinement and Ramachrandran plot results of protein crystallization of CK1δ in complex with compound 30a and 30b, respectively.\n(§4) Root-mean-square deviations\n(§5) Additionally allowed 2.6 2.2\n(§6) Table S2. Selectivity profile of compound 29d. The inhibitor has been screened at a concentration of 1 µM over a panel of 320 wild-type protein kinases by ProQinase GmbH (Freiburg, Germany) using an activity-based radiometric 33PanQinase® assay. Results are presented as percentage of residual kinase activity relative to […]\n(§7) control. The final DMSO concentration was 1 % in each reaction-mix. Classification of protein kinase families refers to Manning et al. (Manning, G.; Whyte, D. B.; Martinez, R.; Hunter, T.; Sudarsanam, S. The Protein Kinase Complement of the Human Genome. Science 2002, 298, 1912–1934): AGC = containing PKA, PKG, PKC families; […] = containing Cdk, MAPK, GSK3, CLK families; STE = homologs of yeast sterile 7, sterile 11, sterile 20 kinases; TK = tyrosine kinase; TKL = tyrosine kinase-like.\n(§8) Kinase name Kinase family Residual Activity (%)"}, "[2]": {"target": "T2, PKC-theta (Homo sapiens, UniProt Q04759)", "T2 construct": "purchased ProQinase", "T2 sequence (Q04759 whole entry)": "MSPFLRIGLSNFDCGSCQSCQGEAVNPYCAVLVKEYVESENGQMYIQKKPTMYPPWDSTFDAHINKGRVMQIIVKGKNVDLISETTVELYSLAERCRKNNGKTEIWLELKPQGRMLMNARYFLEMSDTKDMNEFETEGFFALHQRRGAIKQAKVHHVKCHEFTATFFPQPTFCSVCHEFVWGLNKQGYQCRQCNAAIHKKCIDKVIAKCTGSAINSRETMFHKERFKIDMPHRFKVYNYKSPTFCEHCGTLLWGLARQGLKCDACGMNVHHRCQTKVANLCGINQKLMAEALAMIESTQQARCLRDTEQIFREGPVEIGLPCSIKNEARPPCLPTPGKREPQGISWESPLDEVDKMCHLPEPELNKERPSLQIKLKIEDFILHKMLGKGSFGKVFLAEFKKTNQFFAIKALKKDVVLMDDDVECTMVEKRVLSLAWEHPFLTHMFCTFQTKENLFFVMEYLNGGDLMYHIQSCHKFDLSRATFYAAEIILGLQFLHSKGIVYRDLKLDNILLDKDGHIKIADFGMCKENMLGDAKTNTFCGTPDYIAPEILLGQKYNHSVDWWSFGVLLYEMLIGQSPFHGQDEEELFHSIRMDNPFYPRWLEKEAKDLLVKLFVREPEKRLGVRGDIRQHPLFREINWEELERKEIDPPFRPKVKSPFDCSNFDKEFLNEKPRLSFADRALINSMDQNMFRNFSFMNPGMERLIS", "conditions": "read-out: Residual Activity (%)", "experimental": "as §1, §2, §3, §4, §5, §6, §7, §8"}, "[3]": {"target": "T3, MEKK3 (Homo sapiens, UniProt Q99759)", "T3 construct": "purchased ProQinase", "conditions": "MEKK3, 1 µM; read-out: Residual Activity (%)", "experimental": "as §1, §2, §3, §4, §5, §6, §7, §8"}, "[4]": {"target": "T4, GRK3 (Homo sapiens, UniProt P35626)", "T4 construct": "purchased ProQinase", "conditions": "GRK3, 1 µM; read-out: Residual Activity (%)", "experimental": "as §1, §2, §3, §4, §5, §6, §7, §8"}, "[5]": {"target": "T5, MKNK1 (Homo sapiens, UniProt Q9BUB5)", "T5 construct": "purchased ProQinase", "conditions": "MKNK1, 1 µM; read-out: Residual Activity (%)", "experimental": "as §1, §2, §3, §4, §5, §6, §7, §8"}, "[6]": {"target": "T6, FLT3 (Homo sapiens, UniProt P36888)", "T6 construct": "purchased ProQinase", "conditions": "FLT3, 1 µM; read-out: Residual Activity (%)", "experimental": "as §1, §2, §3, §4, §5, §6, §7, §8"}, "[7]": {"target": "T7, TNK1 (Homo sapiens, UniProt Q13470)", "T7 construct": "purchased ProQinase", "conditions": "TNK1, 1 µM; read-out: Residual Activity (%)", "experimental": "as §1, §2, §3, §4, §5, §6, §7, §8"}, "[8]": {"target": "T8, CAMKK1 (Homo sapiens, UniProt Q8N5S9)", "T8 construct": "purchased ProQinase", "T8 sequence (Q8N5S9 whole entry)": "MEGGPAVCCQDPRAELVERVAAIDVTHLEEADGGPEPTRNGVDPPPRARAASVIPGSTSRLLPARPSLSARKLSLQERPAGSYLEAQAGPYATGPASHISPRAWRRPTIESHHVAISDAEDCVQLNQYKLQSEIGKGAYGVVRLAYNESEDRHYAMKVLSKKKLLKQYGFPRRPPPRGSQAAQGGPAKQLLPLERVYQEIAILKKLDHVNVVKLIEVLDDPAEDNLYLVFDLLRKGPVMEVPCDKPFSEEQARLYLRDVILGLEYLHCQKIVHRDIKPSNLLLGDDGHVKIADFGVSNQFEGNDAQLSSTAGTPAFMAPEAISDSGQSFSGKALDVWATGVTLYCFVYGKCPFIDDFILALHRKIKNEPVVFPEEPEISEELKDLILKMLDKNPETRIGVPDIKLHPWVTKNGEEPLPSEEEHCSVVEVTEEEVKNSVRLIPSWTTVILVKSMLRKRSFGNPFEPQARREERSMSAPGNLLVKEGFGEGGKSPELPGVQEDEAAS", "conditions": "CAMKK1, 1 µM; read-out: Residual Activity (%)", "experimental": "as §1, §2, §3, §4, §5, §6, §7, §8"}, "[9]": {"target": "T9, DMPK (Homo sapiens, UniProt Q09013)", "T9 construct": "purchased ProQinase", "T9 sequence (Q09013 whole entry)": "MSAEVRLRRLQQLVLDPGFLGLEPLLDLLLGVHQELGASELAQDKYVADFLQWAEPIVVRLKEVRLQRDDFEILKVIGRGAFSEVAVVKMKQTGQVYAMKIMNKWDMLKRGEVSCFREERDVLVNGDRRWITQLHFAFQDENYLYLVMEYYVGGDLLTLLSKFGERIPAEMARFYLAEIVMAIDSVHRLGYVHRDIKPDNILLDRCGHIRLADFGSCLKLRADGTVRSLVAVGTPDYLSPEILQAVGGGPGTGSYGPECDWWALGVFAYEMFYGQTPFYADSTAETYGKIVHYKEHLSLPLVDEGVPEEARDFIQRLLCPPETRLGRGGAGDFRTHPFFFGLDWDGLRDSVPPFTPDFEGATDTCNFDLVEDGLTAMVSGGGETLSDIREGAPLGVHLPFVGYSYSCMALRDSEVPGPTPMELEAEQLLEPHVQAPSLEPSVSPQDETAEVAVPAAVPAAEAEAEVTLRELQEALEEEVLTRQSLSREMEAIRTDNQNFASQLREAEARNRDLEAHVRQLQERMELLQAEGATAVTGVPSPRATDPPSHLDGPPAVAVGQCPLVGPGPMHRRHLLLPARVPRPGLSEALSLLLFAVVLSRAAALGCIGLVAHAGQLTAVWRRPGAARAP", "conditions": "read-out: Residual Activity (%)", "experimental": "as §1, §2, §3, §4, §5, §6, §7, §8"}, "[10]": {"target": "T10, SIK2 (Homo sapiens, UniProt Q9H0K1)", "T10 construct": "purchased ProQinase", "conditions": "SIK2, 1 µM; read-out: Residual Activity (%)", "experimental": "as §1, §2, §3, §4, §5, §6, §7, §8"}, "[11]": {"target": "T11, SAK (Homo sapiens, UniProt O00444)", "T11 construct": "purchased ProQinase", "conditions": "read-out: Residual Activity (%)", "experimental": "as §1, §2, §3, §4, §5, §6, §7, §8"}, "[12]": {"target": "T12, CDK9/CycK (Homo sapiens, UniProt P50750)", "T12 construct": "purchased ProQinase", "conditions": "read-out: Residual Activity (%)", "experimental": "as §1, §2, §3, §4, §5, §6, §7, §8"}, "[13]": {"target": "T13, NEK2 (Homo sapiens, UniProt P51955)", "T13 construct": "purchased ProQinase", "T13 sequence (P51955 whole entry)": "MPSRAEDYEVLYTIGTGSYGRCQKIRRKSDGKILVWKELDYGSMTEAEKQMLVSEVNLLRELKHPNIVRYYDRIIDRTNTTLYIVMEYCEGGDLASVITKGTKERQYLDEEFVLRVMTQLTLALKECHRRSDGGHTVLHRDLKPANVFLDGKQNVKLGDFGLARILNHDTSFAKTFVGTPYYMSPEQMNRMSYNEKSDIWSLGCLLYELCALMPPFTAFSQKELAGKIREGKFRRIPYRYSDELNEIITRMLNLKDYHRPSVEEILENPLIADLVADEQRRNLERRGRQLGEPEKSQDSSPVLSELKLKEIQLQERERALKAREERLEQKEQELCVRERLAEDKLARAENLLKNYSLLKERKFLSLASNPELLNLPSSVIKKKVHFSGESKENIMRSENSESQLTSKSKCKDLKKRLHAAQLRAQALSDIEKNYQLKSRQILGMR", "conditions": "NEK2, 1 µM; read-out: Residual Activity (%)", "experimental": "as §1, §2, §3, §4, §5, §6, §7, §8"}, "[14]": {"target": "T14, MARK1 (Homo sapiens, UniProt Q9P0L2)", "T14 construct": "purchased ProQinase", "conditions": "MARK1, 1 µM; read-out: Residual Activity (%)", "experimental": "as §1, §2, §3, §4, §5, §6, §7, §8"}, "[15]": {"target": "T15, SNK (Homo sapiens, UniProt Q9NYY3)", "T15 construct": "purchased ProQinase", "conditions": "read-out: Residual Activity (%)", "experimental": "as §1, §2, §3, §4, §5, §6, §7, §8"}, "[16]": {"target": "T16, VEGF-R2 (Homo sapiens, UniProt P35968)", "T16 construct": "purchased ProQinase", "conditions": "VEGF-R2, 1 µM; read-out: Residual Activity (%)", "experimental": "as §1, §2, §3, §4, §5, §6, §7, §8"}, "[17]": {"target": "T17, CAMK1D (Homo sapiens, UniProt Q8IU85)", "T17 construct": "purchased ProQinase", "conditions": "read-out: Residual Activity (%)", "experimental": "as §1, §2, §3, §4, §5, §6, §7, §8"}, "[18]": {"target": "T18, CDK8/CycC (Homo sapiens, UniProt P49336)", "T18 construct": "purchased ProQinase", "conditions": "read-out: Residual Activity (%)", "experimental": "as §1, §2, §3, §4, §5, §6, §7, §8"}, "[19]": {"target": "T19, HRI (Homo sapiens, UniProt Q9BQI3)", "T19 construct": "purchased ProQinase", "T19 sequence (Q9BQI3 whole entry)": "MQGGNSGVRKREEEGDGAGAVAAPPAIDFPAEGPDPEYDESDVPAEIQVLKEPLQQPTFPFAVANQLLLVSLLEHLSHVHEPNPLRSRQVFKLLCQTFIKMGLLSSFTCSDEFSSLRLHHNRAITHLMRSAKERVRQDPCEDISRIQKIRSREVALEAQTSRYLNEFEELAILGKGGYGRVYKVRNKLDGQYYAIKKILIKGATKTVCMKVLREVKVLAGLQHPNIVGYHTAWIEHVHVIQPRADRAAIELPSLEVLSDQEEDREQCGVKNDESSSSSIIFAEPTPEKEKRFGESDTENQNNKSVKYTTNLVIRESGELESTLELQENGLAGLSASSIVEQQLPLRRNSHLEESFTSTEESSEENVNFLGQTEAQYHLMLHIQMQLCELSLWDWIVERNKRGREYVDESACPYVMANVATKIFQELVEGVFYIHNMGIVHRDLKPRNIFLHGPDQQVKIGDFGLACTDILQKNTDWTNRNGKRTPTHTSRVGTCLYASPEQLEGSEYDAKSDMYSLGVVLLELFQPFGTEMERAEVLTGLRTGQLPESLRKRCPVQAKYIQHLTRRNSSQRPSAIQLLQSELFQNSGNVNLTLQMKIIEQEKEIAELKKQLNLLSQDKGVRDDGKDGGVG", "conditions": "read-out: Residual Activity (%)", "experimental": "as §1, §2, §3, §4, §5, §6, §7, §8"}, "[20]": {"target": "T20, EPHB2 (Homo sapiens, UniProt P29323)", "T20 construct": "purchased ProQinase", "T20 sequence (P29323 19-1055)": "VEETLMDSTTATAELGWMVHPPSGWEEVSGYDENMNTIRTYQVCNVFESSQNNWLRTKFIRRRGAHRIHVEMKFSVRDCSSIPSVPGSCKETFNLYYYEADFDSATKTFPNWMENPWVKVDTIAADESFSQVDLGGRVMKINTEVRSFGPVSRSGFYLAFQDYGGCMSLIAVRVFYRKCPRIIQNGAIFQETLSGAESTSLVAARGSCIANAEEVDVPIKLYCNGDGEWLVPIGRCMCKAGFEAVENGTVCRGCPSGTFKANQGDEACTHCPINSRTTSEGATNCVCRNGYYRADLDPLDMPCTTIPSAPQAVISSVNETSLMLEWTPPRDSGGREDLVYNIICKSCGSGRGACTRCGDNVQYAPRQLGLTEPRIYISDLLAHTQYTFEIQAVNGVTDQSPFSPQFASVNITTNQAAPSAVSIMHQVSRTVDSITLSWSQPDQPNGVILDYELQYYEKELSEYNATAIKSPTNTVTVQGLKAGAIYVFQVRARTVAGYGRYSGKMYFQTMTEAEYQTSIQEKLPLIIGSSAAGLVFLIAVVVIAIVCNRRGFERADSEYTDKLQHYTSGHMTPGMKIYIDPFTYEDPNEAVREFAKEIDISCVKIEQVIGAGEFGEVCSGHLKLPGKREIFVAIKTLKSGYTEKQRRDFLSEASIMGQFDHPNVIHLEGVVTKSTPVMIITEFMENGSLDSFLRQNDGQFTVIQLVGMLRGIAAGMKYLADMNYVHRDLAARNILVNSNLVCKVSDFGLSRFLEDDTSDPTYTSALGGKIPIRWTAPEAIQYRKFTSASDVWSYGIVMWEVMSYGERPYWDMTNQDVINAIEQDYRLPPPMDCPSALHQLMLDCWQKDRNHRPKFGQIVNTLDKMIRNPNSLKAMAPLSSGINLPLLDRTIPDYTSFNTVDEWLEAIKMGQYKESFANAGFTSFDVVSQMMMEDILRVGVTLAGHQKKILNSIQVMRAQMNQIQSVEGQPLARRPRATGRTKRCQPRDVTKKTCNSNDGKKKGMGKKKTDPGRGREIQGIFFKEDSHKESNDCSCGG", "conditions": "EPHB2, 1 µM; read-out: Residual Activity (%)", "experimental": "as §1, §2, §3, §4, §5, §6, §7, §8"}, "[21]": {"target": "T21, CDC42BPB (Homo sapiens, UniProt Q9Y5S2)", "T21 construct": "purchased ProQinase", "conditions": "read-out: Residual Activity (%)", "experimental": "as §1, §2, §3, §4, §5, §6, §7, §8"}, "[22]": {"target": "T22, SRMS (Homo sapiens, UniProt Q9H3Y6)", "T22 construct": "purchased ProQinase", "conditions": "read-out: Residual Activity (%)", "experimental": "as §1, §2, §3, §4, §5, §6, §7, §8"}, "[23]": {"target": "T23, HIPK2 (Homo sapiens, UniProt Q9H2X6)", "T23 construct": "purchased ProQinase", "conditions": "HIPK2, 1 µM; read-out: Residual Activity (%)", "experimental": "as §1, §2, §3, §4, §5, §6, §7, §8"}, "[24]": {"target": "T24, YES (Homo sapiens, UniProt P07947)", "T24 construct": "purchased ProQinase", "conditions": "read-out: Residual Activity (%)", "experimental": "as §1, §2, §3, §4, §5, §6, §7, §8"}, "[25]": {"target": "T25, GRK7 (Homo sapiens, UniProt Q8WTQ7)", "T25 construct": "purchased ProQinase", "conditions": "GRK7, 1 µM; read-out: Residual Activity (%)", "experimental": "as §1, §2, §3, §4, §5, §6, §7, §8"}, "[26]": {"target": "T26, MYLK3 (Homo sapiens, UniProt Q32MK0)", "T26 construct": "purchased ProQinase", "T26 sequence (Q32MK0 whole entry)": "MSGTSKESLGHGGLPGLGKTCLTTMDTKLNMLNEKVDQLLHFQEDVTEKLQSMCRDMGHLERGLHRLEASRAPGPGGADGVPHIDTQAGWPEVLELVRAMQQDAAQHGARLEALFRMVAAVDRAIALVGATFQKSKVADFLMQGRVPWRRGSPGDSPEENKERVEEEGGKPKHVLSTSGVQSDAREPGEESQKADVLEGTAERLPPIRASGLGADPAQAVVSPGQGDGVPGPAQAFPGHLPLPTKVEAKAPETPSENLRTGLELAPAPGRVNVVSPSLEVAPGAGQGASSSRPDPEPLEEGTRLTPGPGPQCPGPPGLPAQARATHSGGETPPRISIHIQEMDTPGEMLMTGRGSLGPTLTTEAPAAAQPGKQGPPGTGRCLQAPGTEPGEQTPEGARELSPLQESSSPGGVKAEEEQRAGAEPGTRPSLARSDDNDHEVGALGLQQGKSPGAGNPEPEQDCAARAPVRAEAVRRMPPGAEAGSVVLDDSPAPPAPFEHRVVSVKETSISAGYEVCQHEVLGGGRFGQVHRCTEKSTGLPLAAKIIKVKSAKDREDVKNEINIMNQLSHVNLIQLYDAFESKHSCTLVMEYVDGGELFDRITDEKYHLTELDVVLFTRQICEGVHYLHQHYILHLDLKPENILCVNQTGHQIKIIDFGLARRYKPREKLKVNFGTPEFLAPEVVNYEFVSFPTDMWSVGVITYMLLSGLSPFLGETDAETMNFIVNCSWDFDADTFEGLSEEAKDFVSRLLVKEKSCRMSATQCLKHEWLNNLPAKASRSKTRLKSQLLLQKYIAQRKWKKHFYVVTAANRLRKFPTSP", "conditions": "MYLK3, 1 µM; read-out: Residual Activity (%)", "experimental": "as §1, §2, §3, §4, §5, §6, §7, §8"}, "[27]": {"target": "T27, RPS6KA4 (Homo sapiens, UniProt O75676)", "T27 construct": "purchased ProQinase", "conditions": "RPS6KA4, 1 µM; read-out: Residual Activity (%)", "experimental": "as §1, §2, §3, §4, §5, §6, §7, §8"}, "[28]": {"target": "T28, MYLK (Homo sapiens, UniProt Q15746)", "T28 construct": "purchased ProQinase", "conditions": "read-out: Residual Activity (%)", "experimental": "as §1, §2, §3, §4, §5, §6, §7, §8"}}, "data": [{"smiles": "COc1ccc(-c2cc(C(=O)Nc3cc(-c4c(-c5ccc(F)cc5)noc4C(C)C)ccn3)n(CC3NCC(O)C3O)c2)cc1", "note": "(stereo not shown) [29d]", "values": [{"measurement": "remaining activity at 1 µM", "setting": "[1]", "result": 92, "unit": "%"}, {"measurement": "remaining activity at 1 µM", "setting": "[2]", "result": 101, "unit": "%"}, {"measurement": "remaining activity at 1 µM", "setting": "[3]", "result": 104, "unit": "%"}, {"measurement": "remaining activity at 1 µM", "setting": "[4]", "result": 109, "unit": "%"}, {"measurement": "remaining activity at 1 µM", "setting": "[5]", "result": 82, "unit": "%"}, {"measurement": "remaining activity at 1 µM", "setting": "[6]", "result": 87, "unit": "%"}, {"measurement": "remaining activity at 1 µM", "setting": "[7]", "result": 104, "unit": "%"}, {"measurement": "remaining activity at 1 µM", "setting": "[8]", "result": 89, "unit": "%"}, {"measurement": "remaining activity at 1 µM", "setting": "[9]", "result": 93, "unit": "%"}, {"measurement": "remaining activity at 1 µM", "setting": "[10]", "result": 98, "unit": "%"}, {"measurement": "remaining activity at 1 µM", "setting": "[11]", "result": 92, "unit": "%"}, {"measurement": "remaining activity at 1 µM", "setting": "[12]", "result": 97, "unit": "%"}, {"measurement": "remaining activity at 1 µM", "setting": "[13]", "result": 89, "unit": "%"}, {"measurement": "remaining activity at 1 µM", "setting": "[14]", "result": 80, "unit": "%"}, {"measurement": "remaining activity at 1 µM", "setting": "[15]", "result": 108, "unit": "%"}, {"measurement": "remaining activity at 1 µM", "setting": "[16]", "result": 110, "unit": "%"}, {"measurement": "remaining activity at 1 µM", "setting": "[17]", "result": 89, "unit": "%"}, {"measurement": "remaining activity at 1 µM", "setting": "[18]", "result": 106, "unit": "%"}, {"measurement": "remaining activity at 1 µM", "setting": "[19]", "result": 93, "unit": "%"}, {"measurement": "remaining activity at 1 µM", "setting": "[20]", "result": 88, "unit": "%"}, {"measurement": "remaining activity at 1 µM", "setting": "[21]", "result": 86, "unit": "%"}, {"measurement": "remaining activity at 1 µM", "setting": "[22]", "result": 127, "unit": "%"}, {"measurement": "remaining activity at 1 µM", "setting": "[23]", "result": 83, "unit": "%"}, {"measurement": "remaining activity at 1 µM", "setting": "[24]", "result": 126, "unit": "%"}, {"measurement": "remaining activity at 1 µM", "setting": "[25]", "result": 107, "unit": "%"}, {"measurement": "remaining activity at 1 µM", "setting": "[26]", "result": 87, "unit": "%"}, {"measurement": "remaining activity at 1 µM", "setting": "[27]", "result": 105, "unit": "%"}, {"measurement": "remaining activity at 1 µM", "setting": "[28]", "result": 106, "unit": "%"}]}]}
